Measurements: patent US20170216315A1 (priority 2016, published 2017)
Marks after values point to notes of the source that are not given here.

Legend:
male C57BL/6 mice [1] = experiment: Amounts of TAG, TC and bile acid in feces; assay type: in vivo; conditions: EK100 1, 5, 10 mg/kg/day vs EtOH group, feces of end of week 3, p<0.05
male C57BL/6 mice [2] = experiment: Hepatitis histological activity index (HAI score); assay type: in vivo; conditions: EK100 1, 5, 10 mg/kg/day vs EtOH group; p<0.05; FIG. 11
Description: To further observe the inflammation of mouse liver, the internationally accepted hepatitis histological activity index (HAI score) was used to categorize the hepatitis activity into the portal zone, lobuli hepatis zone, and periportal zone, which were scored with 0 to 10 points (as shown in Table 8). […] J Insur Med. 33: 110-113 (2001),” which is incorporated herein for reference.

[3] = Feed intake, relative weight of organs and of fat pads; assay type: in vivo, mice; conditions: for Relative weight of abdominal fat pad / Relative weight of epididymal fat pad / Relative weight of heart / Relative weight of kidney / Relative weight of liver / Relative weight of spleen: alcoholic liquid diet, week 4
Procedure: C-1. The feed intakes of mice were recorded every day (4 mice from each group were randomly picked for recording, and an average of the 4 mice was taken). The changes in the mice body weight were recorded at the last day of every week (i.e., an average of 8 mice from each group), over a four-week period.
C-4. After “C-3” was completed, the mice were sacrificed. The weights of the mice hearts, livers, kidneys, spleens, and abdominal and epididymal fat pads were measured and recorded; the mice livers were washed with sterilized saline, and then the liver appearances were recorded by a camera. The collected organs and feces were stored at −80° C. for the following analysis (recording, sample collection and storage were conducted for all of the 8 mice from each group).
The average values of daily feed intakes of mice of each group recorded in [Preparation Examples] Besides, the weights of mice organ and fat of each group obtained from [Preparation Examples] C-4 were averaged, respectively, and then the average weights (g) were divided by the average body weights of mice in week 4 from the corresponding group to obtain the relative weights of organs and the relative weights of fat.

ADH, ALDH, CYP2E1, CAT = experiment: Gene expressions of alcohol metabolism-related enzymes in liver (real-time PCR); assay type: in vivo, mice; conditions: EK100 1, 5, 10 mg/kg/day vs EtOH group; p<0.05; FIG. 12
Procedure: C-4 was put into a 0.8 ml RNAlater containing an RNA stabilizer (Qiagen company, United States), and then the commercial kit (E.Z.N.A™ Tissue RNA kit, purchased from Omega Bio-Tek company, United States) was used to extract the mRNA therein. After that, the mRNA sample obtained therefrom was reverse transcribed to provide cDNA, and then specific primers (as shown in Table 2) were used to conduct real-time polymerase chain reaction (real-time PCR) of the cDNA to observe the expression of each gene in the mouse liver, wherein the operation steps of the real-time polymerase chain reaction were as follows: (i) 2 μl of cDNA (50 ng/μl), 5 μl of SYBR Green (Molecular Probes company, United States, Applied Biosystems/Fast SYBR® Green Master Mix), 2 μl of RNase-free water, 1 μl of forward primer, and 1 μl of reverse primer were well mixed and then centrifuged; (ii) the above sample was put into a real-time polymerase chain reaction system (Applied Biosystems/StepOne Real time PCR system) to detect the expression of each gene, wherein the expression of GAPDH was used as the positive control.
The expressions of alcohol metabolism-related enzymes (i.e., ADH, ALDH, CYP2E1, and CAT) in mouse liver of each group were compared by the analysis method of [Preparation Examples]

catalase (CAT) = experiment: Activity of CAT in mouse liver; assay type: in vivo, mice; conditions: for Activity of CAT: liver homogenate, alcoholic liquid diet, 4 weeks
male C57BL/6 mice [4] = experiment: TEAC value of liver homogenate; conditions: for TEAC value: liver homogenate, alcoholic liquid diet, 4 weeks
[5] = Alcohol concentration in mouse serum; assay type: in vivo, mice; conditions: EK100 1, 5, 10 mg/kg/day vs EtOH group; p<0.05; FIG. 15
Procedure: C-3. At the end of week 4, the mice were fasted for 8 hours. Then, mice blood was collected by orbital sinus blood collection with capillary blood collection needles (for all of the 8 mice from each group). The mice blood was left standing for 1 hour and then centrifuged by a refrigerated microcentrifuge (Kubota corporation, model number: 3700) to separate the supernatant serum. The supernatant serum was stored at −80° C. for the following analysis.
Mouse serum samples of each group provided in [Preparation Examples] C-2 were well mixed with ADH and NAD^+ reagents in a commercial kit (Dade-Berhring company, England, Emit® II Plus Ethyl alcohol assay), and then the alcohol concentrations in the above serum samples were measured by an automatic biochemistry analyzer (Olympus company, Japan, AU2700) at 340 nm wavelength.

IL-1β = experiment: Concentration of IL-1β in liver (ELISA); assay type: in vivo, mice; conditions: EK100 1, 5, 10 mg/kg/day vs EtOH group; p<0.05; FIG. 9B
Description: (§1) D-3 were taken and diluted with Calibrator Diluent RD 5-17 to ⅓ of the original concentration respectively, and then a Quantikine® Rat TNF-α or a Quantikine® Rat IL-1β commercial kit (purchased from R&D Systems company, United States) was used for the Enzyme-linked immune-sorption assay (ELISA) to measure the amounts of tumor necrosis factor-alpha (TNF-α) and interleukin-1β (IL-1β) therein. […]

male C57BL/6 mice [6] = experiment: Amounts of TAG and TC in serum; assay type: in vivo; conditions: EK100 1, 5, 10 mg/kg/day vs EtOH group; p<0.05; FIG. 2A
TNF-α = experiment: Concentration of TNF-α in liver (ELISA); assay type: in vivo, mice; conditions: EK100 1, 5, 10 mg/kg/day vs EtOH group; p<0.05; FIG. 9A
Description: as §1

[7] = EK100 1, 5, 10 mg/kg/day vs EtOH group, p<0.05

For CC(C)[C@@H](C)/C=C/[C@@H](C)[C@H]1CC[C@H]2C3=CCC4C[C@@H](O)CC[C@]4(C)C3=CC[C@]12C (some centres unmarked) [EK100], the “Amount of TAG in feces compared to EtOH” value (male C57BL/6 mice [1]; FIG. 2C) was “significantly increased”, the “Amount of TC in feces compared to EtOH” value (male C57BL/6 mice [1]; FIG. 2C) was “significantly increased” and the “Amount of bile acid in feces compared to EtOH” value (male C57BL/6 mice [1]; FIG. 3) was “significantly increased”. The “HAI score of periportal inflammation (necrosis) compared to EtOH” value (male C57BL/6 mice [2]) was “significantly decreased”, the “HAI score of portal inflammation compared to EtOH” value (male C57BL/6 mice [2]) was “significantly decreased” and the “Relative weight of epididymal fat pad compared to EtOH” value [3, 7] was “significantly lower”. The “Relative weight of abdominal fat pad” value ([3]; EK100_1X: 1 mg/kg/day gavage) was 0.21 ± 0.03^c g/100 g of mice body weight, the “Relative weight of epididymal fat pad” value ([3]; EK100_1X: 1 mg/kg/day gavage) was 1.30 ± 0.11^c g/100 g of mice body weight and the “Relative weight of heart” value ([3]; EK100_1X: 1 mg/kg/day gavage) was 0.53 ± 0.03^bc g/100 g of mice body weight. The “Relative weight of kidney” value ([3]; EK100_1X: 1 mg/kg/day gavage) was 1.33 ± 0.04^a g/100 g of mice body weight, the “Relative weight of liver” value ([3]; EK100_1X: 1 mg/kg/day gavage) was 4.50 ± 0.14^a g/100 g of mice body weight and the “Relative weight of spleen” value ([3]; EK100_1X: 1 mg/kg/day gavage) was 0.53 ± 0.03^a g/100 g of mice body weight. The “Relative weight of abdominal fat pad” value ([3]; EK100_5X: 5 mg/kg/day gavage) was 0.41 ± 0.06^b g/100 g of mice body weight, the “Relative weight of epididymal fat pad” value ([3]; EK100_5X: 5 mg/kg/day gavage) was 1.42 ± 0.14^c g/100 g of mice body weight and the “Relative weight of heart” value ([3]; EK100_5X: 5 mg/kg/day gavage) was 0.57 ± 0.04^ab g/100 g of mice body weight. For the same compound, the “Relative weight of kidney” value ([3]; EK100_5X: 5 mg/kg/day gavage) was 1.28 ± 0.05^a g/100 g of mice body weight, the “Relative weight of liver” value ([3]; EK100_5X: 5 mg/kg/day gavage) was 4.33 ± 0.20^a g/100 g of mice body weight and the “Relative weight of spleen” value ([3]; EK100_5X: 5 mg/kg/day gavage) was 0.55 ± 0.04^a g/100 g of mice body weight. The “Relative weight of abdominal fat pad” value ([3]; EK100_10X: 10 mg/kg/day gavage) was 0.40 ± 0.04^b g/100 g of mice body weight, the “Relative weight of epididymal fat pad” value ([3]; EK100_10X: 10 mg/kg/day gavage) was 1.62 ± 0.07^c g/100 g of mice body weight and the “Relative weight of heart” value ([3]; EK100_10X: 10 mg/kg/day gavage) was 0.51 ± 0.01^bc g/100 g of mice body weight. The “Relative weight of kidney” value ([3]; EK100_10X: 10 mg/kg/day gavage) was 1.14 ± 0.02^b g/100 g of mice body weight, the “Relative weight of liver” value ([3]; EK100_10X: 10 mg/kg/day gavage) was 4.48 ± 0.10^a g/100 g of mice body weight and the “Relative weight of spleen” value ([3]; EK100_10X: 10 mg/kg/day gavage) was 0.55 ± 0.02^a g/100 g of mice body weight. For the same compound, the “Gene expression of ADH in liver compared to EtOH” value (ADH, ALDH, CYP2E1, CAT) was “significantly increased”, the “Gene expression of ALDH in liver compared to EtOH” value (ADH, ALDH, CYP2E1, CAT) was “significantly increased” and the “Gene expression of CAT in liver compared to EtOH” value (ADH, ALDH, CYP2E1, CAT) was “significantly increased”. The “Gene expression of CYP2E1 in liver compared to EtOH” value (ADH, ALDH, CYP2E1, CAT) was “significantly decreased”, the “Activity of CAT in liver compared to EtOH” value (catalase (CAT); [7]) was “significantly increased” and the “Activity of CAT” value (catalase (CAT); EK100_1X: 1 mg/kg/day gavage) was 175.80 ± 6.89^a unit/mg protein. The “Activity of CAT” value (catalase (CAT); EK100_5X: 5 mg/kg/day gavage) was 145.43 ± 5.77^b unit/mg protein, the “Activity of CAT” value (catalase (CAT); EK100_10X: 10 mg/kg/day gavage) was 137.16 ± 6.79^bc unit/mg protein and the “TEAC value of liver compared to EtOH” value (male C57BL/6 mice [4]; [7]) was “significantly increased”. The TEAC value (male C57BL/6 mice [4]; EK100_1X: 1 mg/kg/day gavage) was 69.18 ± 2.77^a nmol/mg protein, the TEAC value (male C57BL/6 mice [4]; EK100_5X: 5 mg/kg/day gavage) was 75.23 ± 2.61^a nmol/mg protein and the TEAC value (male C57BL/6 mice [4]; EK100_10X: 10 mg/kg/day gavage) was 70.50 ± 2.25^a nmol/mg protein. The “Alcohol concentration in serum compared to EtOH” value [5] was “significantly decreased”, the “Concentration of IL-1β in liver compared to EtOH” value (IL-1β) was “significantly decreased” and the “Amount of TAG in serum compared to EtOH” value (male C57BL/6 mice [6]) was “significantly decreased”. For the same compound, the “Amount of TC in serum compared to EtOH” value (male C57BL/6 mice [6]) was “significantly decreased” and the “Concentration of TNF-α in liver compared to EtOH” value (TNF-α) was “significantly decreased”.
